# From patent US7629156B2, “Ethanol production in fermentation of mixed sugars containing xylose” (E.I. du Pont de Nemours and Company, priority 2006, dated 2009)
# Assays:
# ZW658 strain [1] = experiment: Flask fermentation of ZW658 on glucose and xylose with various polyols; format: cell-based, Zymomonas mobilis; settings: 10 mM polyol
# Procedure: (§1) Approximately 1 ml of well mixed sample was obtained from flask or fermentor. First the sample absorbance was measured directly with a spectrophotometer (Amersham Biosciences Ultrospec 3300pro, GE Healthcare, Piscataway, N.J., USA). If the reading was lower than 0.6 unit, no dilution was needed. If the reading was higher than 0.6 unit, the sample was diluted with culture medium until the actual reading was in the range of 0.1 to 0.6 unit. The original OD was calculated from the dilution ratio and the actual reading.
# (§2) The analysis of sugars, acetate, ethanol, and other by-products was done with an Agilent 1100 series HPLC and Agilent ChemStation software for LC 3D. The column was BioRad Aminex HPX-87H(HPLC Organic Analysis Column 125-0140) with BioRad Micro-Guard Cartridge Cation-H (125-0129). The operating conditions were:
# (§3) Glycerol stock of seed frozen at −80° C. was thawed, then inoculated into sterile culture tubes with mixture of 60 g/L glucose, 20 g/L xylose, 10 g/L yeast extract (YE), 10 g/L KH2PO4, 2 g/L (NH4)2SO4, and 1 g/L MgSO4. Initial pH was adjusted to 5.5 with 4 N KOH. This revival culture was grown statically overnight at 37° C. It was transferred into shake flasks with 75 g/L glucose, 25 g/L xylose, 10 g/L yeast extract (YE), 10 g/L KH2PO4, 2 g/L (NH4)2SO4, and 1 g/L MgSO4. Initial pH was adjusted to 5.5 with 4 N KOH. Growth was monitored by measuring OD600. When the OD reached approximately 5, a certain volume of the seed was withdrawn into a sterile syringe for inoculation.
# In five sterilized 125 ml Erlenmeyer culture flasks (Cat. No. 30180-036, VWR International, USA), 10 ml of ZW658 strain seed culture at OD600 of approximately 5 was inoculated into each flask with 100 ml of aqueous solution containing 100 g/L glucose, 80 g/L xylose, 10 g/L yeast extract (YE), 2 g/L KH2PO4, 1 g/L MgSO4.7H2O, and 4 g/L KHCO3, and 10 mM of one of the following polyols: erythritol, sorbitol, mannitol, maltitol, or lactitol. After inoculation, the total sugar concentration was about 160 g/L due to dilution by the seed culture. Initial pH was adjusted to 5.5 with 4 N H3PO4 solution. Mixing speed was set at 150 rpm. Fermentation was conducted at 33° C. and pH was not controlled. Samples were taken periodically. Samples were filtered through 0.22 micron filters, and the filtrates were analyzed by HPLC as described in General Methods for compounds including glucose, xylose, ethanol, xylitol, and acetic acid. Samples were diluted with medium (as described in General Methods) and the OD600 was measured to monitor cell growth. […] Cultures with sorbitol or mannitol grew faster and better. After 32 hours, the OD600 were 13.94 and 13.92, respectively, for cultures supplemented with sorbitol or mannitol; meanwhile, the OD600 were 9.48, 9.02, and 9.24, respectively, for cultures supplemented with erythritol, maltitol, or lactitol. […] The presence of sorbitol or mannitol allowed more xylose utilization, without production of xylitol.
# ZW658 strain [2] = experiment: Flask fermentation of ZW658 on glucose and xylose with sorbitol 10-200 mM; format: cell-based, Zymomonas mobilis
# Procedure: as §1, §2, §3
# In five sterilized 125 ml Erlenmeyer culture flasks (Cat. No. 30180-036, VWR International, USA), 10 ml of ZW658 strain seed culture at Optical Density of approximately 5 (measured at 600 nm; OD600) was inoculated into each flask with 100 ml of aqueous solution containing 110 g/L glucose, 90 g/L xylose, 10 g/L yeast extract (YE), 2 g/L KH2PO4, 4 g/L KHCO3, and various concentrations of sorbitol (10, 20, 50, 100, and 200 mM). Initial pH was adjusted to 5.5 with 4 NH3PO4 solution. Mixing speed was set at 150 rpm. Fermentation was conducted at 33° C. and pH was not controlled. Samples were taken periodically. Samples were filtered through 0.22 micron filters, and the filtrates were analyzed by HPLC as described in General Methods for ethanol. Samples were diluted with medium (as described in General Methods) and the OD600 was measured to monitor cell growth. […] After 24 hours, the OD600 were 7.74, 7.86, 8.04, 7.82, and 7.12, respectively, for sorbitol concentrations of 10, 20, 50, 100, and 200 mM. After 48 hours, the OD600 were 8.30, 8.26, 8.84, 8.12, and 7.72, respectively, for sorbitol concentrations of 10, 20, 50, 100, and 200 mM. […] Ethanol production was slightly slower with 100 or 200 mM sorbitol than with 10, 20, or 50 mM sorbitol, although all cultures reached about the same final amount of ethanol produced. […] Thus 10 mM sorbitol is adequate to provide maximal ethanol production under these conditions.
compound,measurement,setting,value
OC[C@@H](O)[C@@H](O)[C@H](O)[C@@H](O)CO [sorbitol],ethanol production,ZW658 strain [1]; mixed sugars,ethanol production was also better
same,xylose utilization,ZW658 strain [1]; mixed sugars,More xylose was utilized
same,OD600,"ZW658 strain [1]; after 32 hours, total sugar about 160 g/L, 33° C.",13.94
same,xylitol,"ZW658 strain [2]; 10-200 mM sorbitol, any of the samples",No xylitol was detected
same,OD600,"ZW658 strain [2]; after 24 hours, 10 mM sorbitol, 110 g/L glucose, 90 g/L xylose",7.74
same,OD600,"ZW658 strain [2]; after 24 hours, 20 mM sorbitol",7.86
same,OD600,"ZW658 strain [2]; after 24 hours, 50 mM sorbitol",8.04
same,OD600,"ZW658 strain [2]; after 24 hours, 100 mM sorbitol",7.82
same,OD600,"ZW658 strain [2]; after 24 hours, 200 mM sorbitol",7.12
same,OD600,"ZW658 strain [2]; after 48 hours, 10 mM sorbitol",8.30
same,OD600,"ZW658 strain [2]; after 48 hours, 20 mM sorbitol",8.26
same,OD600,"ZW658 strain [2]; after 48 hours, 50 mM sorbitol",8.84
same,OD600,"ZW658 strain [2]; after 48 hours, 100 mM sorbitol",8.12
same,OD600,"ZW658 strain [2]; after 48 hours, 200 mM sorbitol",7.72
